In patent US20230348426A1, “OXOPYRROLIDINE FPR2 AGONISTS” (Bristol-Myers Squibb Company, priority 2020, published 2023) one finds EC50 data, which are given here for 33 molecules.

Usually EC50 stands for the concentration at which the effect is half-maximal.

The target in experiment [1] is human FPR1 (Homo sapiens (Human), UniProt P21462). The experiment is described as follows: FPR1 cyclic adenosine monophosphate (cAMP) assay. In kind it is cell-based. The settings on record: CHO cells overexpressing human FPR1; forskolin 10 µM; inhibition of cAMP production; read-out: hFPR1 cAMP EC50. In short, it runs like this: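 CHO cells overexpressing human FPR1 (4,000 cells/well) stimulated with 10 µM forskolin plus 200 µM IBMX in the presence of compound (0.020 nM–100 µM, 1% DMSO), 30 min at room temperature. Intracellular cAMP measured by HTRF. Inhibition of cAMP production fitted to a 4-parameter logistic equation.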
human FPR1, sequence (P21462 whole entry): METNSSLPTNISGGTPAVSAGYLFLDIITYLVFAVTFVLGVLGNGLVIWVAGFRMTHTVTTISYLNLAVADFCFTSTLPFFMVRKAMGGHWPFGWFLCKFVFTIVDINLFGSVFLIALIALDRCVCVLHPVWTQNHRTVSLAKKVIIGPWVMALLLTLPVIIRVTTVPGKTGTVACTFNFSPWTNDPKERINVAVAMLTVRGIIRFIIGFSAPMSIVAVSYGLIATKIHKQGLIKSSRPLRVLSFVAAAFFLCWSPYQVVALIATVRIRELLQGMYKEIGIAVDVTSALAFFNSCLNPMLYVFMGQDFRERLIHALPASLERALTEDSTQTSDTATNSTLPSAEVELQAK
A general note: Changes in cAMP serve as a functional read-out for many G protein-coupled receptors.

Experiment [2] has as its target human FPR2 (Homo sapiens (Human), UniProt P25090). The experiment is described as follows: FPR2 cyclic adenosine monophosphate (cAMP) assay. The class given is cell-based. The settings on record: CHO cells overexpressing human FPR2; forskolin 5 µM; inhibition of cAMP production; read-out: hFPR2 cAMP2 EC50. In short, it runs like this: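 CHO cells overexpressing human FPR2 (2,000/well) incubated 30 min at room temperature with compound (0.020 nM–100 µM, 1% DMSO), 5 µM forskolin and 200 µM IBMX.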

human FPR2, sequence (P25090 whole entry): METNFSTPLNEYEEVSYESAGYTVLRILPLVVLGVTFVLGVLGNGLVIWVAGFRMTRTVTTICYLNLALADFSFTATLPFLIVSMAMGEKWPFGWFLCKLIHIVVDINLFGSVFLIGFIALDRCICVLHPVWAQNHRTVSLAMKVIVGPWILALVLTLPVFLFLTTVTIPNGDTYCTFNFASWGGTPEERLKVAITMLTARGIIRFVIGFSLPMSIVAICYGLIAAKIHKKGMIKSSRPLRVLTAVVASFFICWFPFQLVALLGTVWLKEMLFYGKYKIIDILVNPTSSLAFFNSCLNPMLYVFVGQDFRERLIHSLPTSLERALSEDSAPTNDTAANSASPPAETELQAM

For `COc1cc(F)c([C@@H]2CN(c3c(Cl)ccn(C)c3=O)C(=O)[C@H]2NC(=O)c2ccc(Cl)cc2)c(F)c1` [Example 196], the figures for the EC50 in experiment [1] and in experiment [2] were 160 nM and 5.2 nM, respectively.

In the case of `CCn1ccc(C)c(N2C[C@@H](c3c(F)cc(OC)cc3F)[C@H](NC(=O)c3ccc(OC(F)F)cc3)C2=O)c1=O` [Example 197], the concentration giving a half-maximal response (EC50) worked out at 1.7 nM in experiment [1] and 5.2 nM in experiment [2].

With `COc1cc(F)c([C@@H]2CN(c3nc(N4CCC(O)C4=O)ccc3F)C(=O)[C@H]2NC(=O)c2ccc(OC(F)F)cc2)c(F)c1` (stereo partly drawn) [Example 199], the concentration giving a half-maximal response (EC50) came to 130 nM in experiment [1] and 5.2 nM in experiment [2].

For `COCCn1cccc(N2C(=O)[C@@H](NC(=O)c3ccc(OC(F)(F)F)cc3)[C@H](c3c(F)cc(OC)cc3F)[C@H]2C)c1=O` [Example 200], the EC50 stood at 290 nM in experiment [1] and 5.2 nM in experiment [2].

On to `COc1cc(F)c([C@@H]2CN(c3cccn(C4CCOC4)c3=O)C(=O)[C@H]2NC(=O)c2ccc(OC(F)F)cc2)c(F)c1` (stereo partly drawn) [Example 201], for which the values for the concentration giving a half-maximal response (EC50) in experiment [1] and in experiment [2] were 18 nM and 5.3 nM, respectively.

Take `COc1cc(F)c([C@@H]2CN(c3cccnc3OCCN3CC4(COC4)C3)C(=O)[C@H]2NC(=O)c2ccc(OC(F)F)cc2)c(F)c1` [Example 202]: the EC50 in experiment [1] is 62 nM; in experiment [2], 5.3 nM.

For the molecule `COc1cc(F)c([C@@H]2CN(c3nc(C(F)(F)F)ccc3C)C(=O)[C@H]2NC(=O)c2ccc(OC(F)F)cc2)c(F)c1` [Example 204], the concentration giving a half-maximal response (EC50) in experiment [1] came to 520 nM; in experiment [2], 5.3 nM.

As for `CCn1cc(F)cc(N2C[C@@H](c3c(F)cc(OC)cc3F)[C@H](NC(=O)c3ccc(OC(F)F)cc3)C2=O)c1=O` [Example 205], the values for the EC50 in experiment [1] and in experiment [2] were 220 nM and 5.4 nM, respectively.

Take `COc1cc(F)c([C@@H]2CN(c3nc(NC(C)=O)ccc3F)C(=O)[C@H]2NC(=O)c2ccc(OC(F)(F)F)cc2)c(F)c1` [Example 206]: the EC50 in experiment [1] amounted to 24 nM; in experiment [2], 5.4 nM.

Regarding `COCCn1ccc(C)c(N2C[C@@H](c3ccc(OC)cc3F)[C@H](NC(=O)c3ccc(OC(F)F)cc3)C2=O)c1=O` [Example 208], the values for the EC50 in experiment [1] and in experiment [2] were 1.4 nM and 5.4 nM, respectively.

Consider `COc1cc(F)c([C@@H]2CN(c3nc(N4CC5(COC5)C4)ccc3F)C(=O)[C@H]2NC(=O)c2ccc(OC(F)F)cc2)c(F)c1` [Example 209], for which the values for the EC50 in experiment [1] and in experiment [2] were 130 nM and 5.5 nM, respectively.

For `COc1cc(F)c([C@@H]2CN(c3cccn(CCN4CC5(COC5)C4)c3=O)C(=O)[C@H]2NC(=O)c2ccc(OC(F)(F)F)cc2)c(F)c1` [Example 210], the EC50 in experiment [1] amounted to 190 nM; in experiment [2], 5.5 nM.

Take `COc1cc(F)c([C@@H]2CN(c3cccc(N4C[C@H]5C[C@@H]4CO5)n3)C(=O)[C@H]2NC(=O)c2ccc(OC(F)F)cc2)c(F)c1` [Example 211]: the figures for the EC50 in experiment [1] and in experiment [2] were 25 nM and 5.5 nM, respectively.

In the case of `COc1cc(F)c([C@@H]2CN(c3nc(C(F)(F)F)ccc3N3CC[C@H](O)C3)C(=O)[C@H]2NC(=O)c2ccc(Cl)cc2)c(F)c1` [Example 212], the EC50 is 100 nM in experiment [1] and 5.6 nM in experiment [2].

`COc1cc(F)c([C@@H]2CN(c3cccc(N4C[C@@H](C)N(C)[C@@H](C)C4)n3)C(=O)[C@@H]2NC(=O)c2ccc(OC(F)F)cc2)c(F)c1` [Example 213]: the EC50 in experiment [1] was determined as 1800 nM; in experiment [2], 5.6 nM.

In the case of `COc1cc(N2C[C@@H](C)N(C)[C@@H](C)C2)nc(N2C[C@@H](c3c(F)cc(OC)cc3F)[C@H](NC(=O)c3ccc(OC(F)F)cc3)C2=O)c1` [Example 214], the EC50 in experiment [1] is 2400 nM; in experiment [2], 5.6 nM.

Turning to `CCn1cccc(N2C[C@@H](c3c(F)cc(OC)cc3F)[C@H](NC(=O)c3ccc(C)cc3)C2=O)c1=O` [Example 215], the concentration giving a half-maximal response (EC50) in experiment [1] is 41 nM; in experiment [2], 5.6 nM.

Turning to `COc1cc(F)c([C@@H]2CN(c3nc(N4CC(C)OCC4=O)ccc3F)C(=O)[C@H]2NC(=O)c2ccc(OC(F)F)cc2)c(F)c1` (stereo partly drawn) [Example 216], the results for the EC50 in experiment [1] and in experiment [2] were 270 nM and 5.7 nM, respectively.

With `COCC(CO)n1cccc(N2C(=O)[C@@H](NC(=O)c3ccc(OC(F)F)cc3)[C@H](c3c(F)cc(OC)cc3F)[C@@H]2C)c1=O` (stereo partly drawn) [Example 217], the EC50 in experiment [1] worked out at 42 nM; in experiment [2], 5.7 nM.

On to `COc1cc(F)c([C@@H]2CN(c3cccn(CC(C)(CO)CO)c3=O)C(=O)[C@H]2NC(=O)c2ccc(OC(F)F)cc2)c(F)c1` [Example 218], for which the EC50 in experiment [1] was 140 nM; in experiment [2] it was 5.7 nM.

On to `COc1cc(F)c([C@@H]2CN(c3cccn(CCO)c3=O)C(=O)[C@H]2NC(=O)c2ccc(OC(F)F)cc2)c(F)c1` [Example 219], for which the EC50 was 140 nM in experiment [1] and 5.8 nM in experiment [2].

`COCCn1cccc(N2C(=O)[C@@H](NC(=O)c3ccc(Cl)cc3)[C@H](c3c(F)cc(OC)cc3F)[C@H]2C)c1=O` [Example 220]: the EC50 stood at 990 nM in experiment [1] and 5.8 nM in experiment [2].

`COc1cc(F)c([C@@H]2CN(c3cccn(CCF)c3=O)C(=O)[C@H]2NC(=O)c2ccc(OC(F)(F)F)cc2)c(F)c1` [Example 221]: the values for the EC50 in experiment [1] and in experiment [2] were 50 nM and 6 nM, respectively.

On to `COc1cc(F)c([C@@H]2CN(c3nc(N4CC5(COC5)C4)ccc3OC)C(=O)[C@H]2NC(=O)c2ccc(OC(F)F)cc2)c(F)c1` [Example 223], for which the results for the EC50 in experiment [1] and in experiment [2] were 100 nM and 6.1 nM, respectively.

Take `COc1cc(F)c([C@@H]2CN(c3nccc(N4CCN(S(C)(=O)=O)CC4)c3C(F)(F)F)C(=O)[C@H]2NC(=O)c2ccc(Cl)cc2)c(F)c1` [Example 224]: the concentration for a half-maximal effect (EC50) in experiment [1] is 1900 nM; in experiment [2] it was 6.1 nM.

On to `COc1cc(F)c([C@@H]2CN(c3nc(N4C[C@@H](C)N(C)[C@@H](C)C4)ccc3OC)C(=O)[C@H]2NC(=O)c2ccc(OC(F)F)cc2)c(F)c1` [Example 225], for which the results for the concentration for a half-maximal effect (EC50) in experiment [1] and in experiment [2] were 630 nM and 6.2 nM, respectively.

For `CCn1cccc(N2C[C@@H](c3ccc(OC)cc3F)[C@H](NC(=O)c3ccc(OC(F)F)cc3)C2=O)c1=O` [Example 226], the EC50 in experiment [1] stood at 23 nM; in experiment [2], 6.2 nM.

Turning to `COc1cc(F)c([C@@H]2CN(c3ccc(CO)n(C)c3=O)C(=O)[C@H]2NC(=O)c2ccc(OC(F)(F)F)cc2)c(F)c1` [Example 227], the values for the EC50 in experiment [1] and in experiment [2] were 240 nM and 6.2 nM, respectively.

Take `CCn1ccc(C)c(N2C[C@@H](c3c(F)cc(OC)cc3F)[C@H](NC(=O)c3ccc(OC(F)(F)F)cc3)C2=O)c1=O` [Example 228]: the figures for the EC50 in experiment [1] and in experiment [2] were 1.2 nM and 6.2 nM, respectively.

For the molecule `CCn1cc(F)cc(N2C[C@@H](c3c(F)cc(OC)cc3F)[C@H](NC(=O)c3ccc(OC(F)(F)F)cc3)C2=O)c1=O` [Example 230], the EC50 is 88 nM in experiment [1] and 6.2 nM in experiment [2].

As for `COCCn1ccc(C)c(N2C[C@@H](c3c(F)cc(OC)cc3F)[C@H](NC(=O)c3ccc(OC(F)F)cc3)C2=O)c1=O` [Example 232], the EC50 amounted to 3.2 nM in experiment [1] and 6.3 nM in experiment [2].

Consider `COc1cc(N2CCN(C)CC2)nc(N2C[C@@H](c3c(F)cc(OC)cc3F)[C@H](NC(=O)c3ccc(Cl)cc3)C2=O)c1` [Example 233], for which the concentration giving a half-maximal response (EC50) is > 5000 nM in experiment [1] and 6.3 nM in experiment [2].

`COc1cc(F)c([C@@H]2CN(c3nccc(NCC(C)O)c3C(F)(F)F)C(=O)[C@H]2NC(=O)c2ccc(OC(F)F)cc2)c(F)c1` (stereo partly drawn) [Example 234]: the EC50 in experiment [1] came out at 1100 nM; in experiment [2], 6.3 nM.
